2 molecules from patent EP4721767A1 (priority 2023, dated 2024) can be followed below.

For orientation: IC50 means the concentration that inhibits the measured activity by half. The EC50 is the midpoint of the concentration-response curve. In general, Kd refers to the equilibrium constant for the complex coming apart. For orientation: koff means the rate constant with which the complex falls apart. Broadly, the kon is the rate constant with which the complex forms.

In one test the test system is HT-29. Put plainly: Proliferation-inhibiting effect on tumor cells (SRB / MTT). It is filed as cell-based. The following applies: Homo sapiens; HT-29, 144 hours; read-out: IC50 (nM, mean ± SD). How it is done:
(§1) For cells growing by adherence, SRB assay was used to detect effect of antibody-drug conjugates, antibodies, or camptothecins on the proliferation of tumor cells in vitro cultured. A certain number of cells in exponential growth phase were inoculated in 96-well cell culture plates, and when the cells grew by adherence overnight, antibody drug conjugates, antibodies, or camptothecins of different concentrations were added into the cells. 144 hours of incubation later, the cells were fixed with trichloroacetic acid, and then stained with SRB (prepared in 1% glacial acetic acid at a concentration of 4 mg/mL). 10 mM Tris solution was added into each well to solubilize the bound SRB. OD values at 510 nm were read on a microplate reader. [formula]
(§2) For cells growing in suspension, MTT assay was used to detect effect of antibody-drug conjugates, antibodies, or camptothecins on the proliferation of tumor cells in vitro cultured. A certain number of cells in exponential growth phase were inoculated in 96-well cell culture plates, and when the cells grew in suspension overnight, antibody-drug conjugates, antibodies, or camptothecins of different concentrations were added into the cells. 144 hours of incubation later, MTT was added to each well of the plates, and the incubation was continued for 4 hours at 37 °C in a 5% CO2 saturated humidity incubator. Next, 100 µL of SDS-isobutanol-HCl solution was added into each well of the plates, and OD values at 570 nm and 690 nm were read on a microplate reader.
(§3) Half maximal inhibitory concentration (IC50) was calculated from the inhibition (%) at those different concentrations using the software Graphpad Prism 8.0. The experiment was repeated once and the data was expressed as mean ± SD, and a plot of log(concentration) versus inhibition was generated. Table 10. Results of the proliferation-inhibiting effect of ADCs targeting B7-H3 on different tumor cells

For a further test, the system named is SW626. The test is described as above. The following applies: Homo sapiens; SW626, 144 hours; read-out: IC50 (nM, mean ± SD). The format is cell-based. How it is done:
as §1, §2, §3

Another test deals with MC38. The test is described as above. It is filed as cell-based. The following applies: Mus musculus, MC-38; MC38, 144 hours; read-out: IC50 (nM, mean ± SD). How it is done: as §1, §2, §3
The subject of another test is MC38/B7H3. The test is described as above. The format is cell-based. The following applies: Mus musculus, MC-38; MC38/B7H3, 144 hours; read-out: IC50 (nM, mean ± SD). How it is done: as §1, §2, §3
The subject of another test is PANC-1. The test is described as above. It is filed as cell-based. The following applies: Homo sapiens; PANC-1, 144 hours; read-out: IC50 (nM, mean ± SD). How it is done:
as §1, §2, §3

The test system of the next test is BxPC-3. Described as above. The format is cell-based. The following applies: Homo sapiens; BxPC-3, 144 hours; read-out: IC50 (nM, mean ± SD). How it is done: as §1, §2, §3
The next test deals with NCI-N87. The description is as above. The following applies: Homo sapiens; NCI-N87, 144 hours; read-out: IC50 (nM, mean ± SD). The format is cell-based. How it is done: as §1, §2, §3
For a further test, the system named is Calu-3. The test is described as above. The format is cell-based. The following applies: Homo sapiens; Calu-3, 144 hours; read-out: IC50 (nM, mean ± SD). How it is done:
as §1, §2, §3

Another test deals with ES-2. Described as above. It is filed as cell-based. The following applies: Homo sapiens; ES-2, 144 hours; read-out: IC50 (nM, mean ± SD). How it is done:
as §1, §2, §3

Another test deals with Calu-6. The description is as above. It is filed as cell-based. The following applies: Homo sapiens; Calu-6, 144 hours; read-out: IC50 (nM, mean ± SD). How it is done:
as §1, §2, §3

The test system of another test is SK-OV-3. Described as above. The format is cell-based. The following applies: Homo sapiens; SK-OV-3, 144 hours; read-out: IC50 (nM, mean ± SD). How it is done:
as §1, §2, §3

The test system of the next test is MDA-MB-468. The description is as above. It is filed as cell-based. The following applies: Homo sapiens; MDA-MB-468, 144 hours; read-out: IC50 (nM, mean ± SD). How it is done:
as §1, §2, §3

For the next test, the system named is U-87 MG. The description is as above. The following applies: Homo sapiens, 144 hours, read-out: IC50 (nM, mean ± SD). The format is cell-based. How it is done:
as §1, §2, §3

For another test, the system named is PANC 05.04. The test is described as above. The format is cell-based. The following applies: Homo sapiens; PANC 05.04, 144 hours; read-out: IC50 (nM, mean ± SD). How it is done: as §1, §2, §3
The subject of the next test is MDA-MB-231. Described as above. It is filed as cell-based. The following applies: Homo sapiens; MDA-MB-231, 144 hours; read-out: IC50 (nM, mean ± SD). How it is done: as §1, §2, §3
The next test deals with HCT-116. The description is as above. The following applies: Homo sapiens; HCT-116, 144 hours; read-out: IC50 (nM, mean ± SD). It is filed as cell-based. How it is done:
as §1, §2, §3

The subject of test [1] is KB oral epithelial cancer cells. Put plainly: Cell killing activity of camptothecins (CCK-8). The following applies: killing 4 days. The format is cell-based. How it is done: (§4) KB oral epithelial cancer cells (purchased from: ATCC) were cultured in DMEM medium supplemented with 10% FBS; NCI-N87 human gastric cancer cells (purchased from: ATCC) were cultured in RPMI1640 medium supplemented with 10% FBS; HT29 human colon cancer cells (purchased from: ATCC) were cultured in RPMI1640 medium supplemented with 10% FBS; and BxPC-3 human pancreatic adenocarcinoma cells (purchased from: ATCC) were cultured in RPMI1640 medium supplemented with 10% FBS.
(§5) Using corresponding media described above and in cell plates, the density of KB cells was adjusted to 2×10^4/mL; the density of NCI-N87 cells was adjusted to 5×10^4/mL; the density of HT29 cells was adjusted to 5×10^4/mL, and the cells were plated onto 96-well transparent flat bottom plates, at 100 µL/well, and cultured overnight; and the density of BxPC-3 cells was adjusted to 5×10^4/mL.
(§6) Samples to be detected were diluted to 20 µM with corresponding media, then 5-fold gradient dilution was performed, and 9 concentrations were obtained. A well having cells but with no any sample added was set as the well showing maximum cell growth; and a well having no cells was set as the well of medium background. The diluted samples were added into the cell plates, at 100 µL/well, which were then incubated in a CO2 incubator for 96 hours. After the incubation, CCK-8 (purchased from: DOJINDO LABORATORIES) prepared beforehand was added into the plates, at 20 µL/well, and after further 3 hours of incubation in the CO2 incubator, OD values at 450 nm were read on a microplate reader.
(§7) Data obtained was fitted to a four-parameter curve using software Prism7, and equation for calculating maximum killing is: maximum killing (%) = 1 - (OD450 value of the well showing maximum killing - OD450 value of the well of medium background) / (OD450 value of the well showing maximum cell growth - OD450 value of the cell of medium background) × 100%. Table 6. Results of comparative study on the activity of camptothecins

For test [2], the system named is HT29 human colon cancer cells. Put plainly: Cell killing activity of camptothecins (CCK-8). The format is cell-based. The following applies: HT29, killing 4 days. How it is done:
as §4, §5, §6, §7

Test [3] deals with T1, Recombinant human B7-H3 extracellular domain protein (UniProtKB-Q5ZPR3, amino acids 1-461, C-His tag) (human) (UniProt Q5ZPR3).
T1 sequence (looked up): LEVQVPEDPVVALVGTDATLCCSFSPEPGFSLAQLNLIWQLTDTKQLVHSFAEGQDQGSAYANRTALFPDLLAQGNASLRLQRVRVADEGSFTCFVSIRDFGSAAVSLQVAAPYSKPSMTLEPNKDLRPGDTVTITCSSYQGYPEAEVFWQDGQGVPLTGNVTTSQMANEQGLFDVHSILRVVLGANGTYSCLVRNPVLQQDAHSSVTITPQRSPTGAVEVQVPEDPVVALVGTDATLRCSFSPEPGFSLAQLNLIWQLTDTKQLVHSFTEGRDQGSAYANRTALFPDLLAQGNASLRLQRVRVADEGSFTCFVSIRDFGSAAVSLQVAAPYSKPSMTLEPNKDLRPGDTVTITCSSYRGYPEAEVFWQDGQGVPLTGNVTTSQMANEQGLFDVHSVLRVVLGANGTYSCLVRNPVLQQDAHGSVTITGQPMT
Put plainly: BLI (ForteBio Octet QKe), antibody on AHC probes, 60 nM antigen, 1:1 Langmuir fit. In general terms: BLI is a label-free optical method that tracks binding on a fibre tip over time.

The target of test [4] is T2, human B7-H3 naturally expressed on the surface of SKOV3 cells (human) (UniProt Q5ZPR3).
T2 sequence (looked up): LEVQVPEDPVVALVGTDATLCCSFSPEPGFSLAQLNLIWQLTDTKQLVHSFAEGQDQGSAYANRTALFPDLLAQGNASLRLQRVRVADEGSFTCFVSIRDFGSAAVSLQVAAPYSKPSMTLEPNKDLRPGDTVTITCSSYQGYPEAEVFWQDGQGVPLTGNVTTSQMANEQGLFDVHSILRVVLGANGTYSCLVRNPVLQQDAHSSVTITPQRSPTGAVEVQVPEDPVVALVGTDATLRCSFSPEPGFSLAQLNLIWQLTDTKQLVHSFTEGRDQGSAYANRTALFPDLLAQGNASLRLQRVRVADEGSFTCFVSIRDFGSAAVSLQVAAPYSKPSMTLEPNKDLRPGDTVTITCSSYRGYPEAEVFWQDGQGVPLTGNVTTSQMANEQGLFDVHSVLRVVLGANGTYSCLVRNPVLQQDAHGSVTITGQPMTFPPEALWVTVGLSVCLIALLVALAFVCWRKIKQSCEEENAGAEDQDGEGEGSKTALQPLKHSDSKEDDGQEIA
Put plainly: flow cytometry (MFI) on SKOV3 cells naturally expressing human B7-H3.

Take `CC[C@@]1(O)C(=O)OCc2c1cc1n(c2=O)Cc2c-1nc1ccc(N)c3c1c2C(F)(F)CC3` [Compound 3]: the IC50 in the test with HT-29 was found to be 0.62 nM; with SW626, 3.08 ± 0.63 nM; in the test with MC38 it was 3.27 ± 0.75 nM; with MC38/B7H3, 4.67 ± 1.98 nM; with PANC-1, 0.82 ± 0.16 nM; with BxPC-3, 0.26 ± 0.09 nM. Moreover, the IC50 amounted to 1.26 ± 0.13 nM in the test on NCI-N87; 0.44 ± 0.1 nM with Calu-3; 0.21 ± 0.08 nM in the test with ES-2; 0.25 ± 0.06 nM with Calu-6; 1.05 ± 0.48 nM with SK-OV-3; 0.21 ± 0.11 nM with MDA-MB-468. For the same molecule, the IC50 with U-87 MG was 3.72 ± 0.01 nM; in the test on PANC 05.04, 0.35 ± 0.19 nM; in the test on MDA-MB-231, 0.59 ± 0.03 nM; with HCT-116 it was 0.3 nM. For the same molecule, the EC50 in test [1] (96 h) was 7470 pM; in [2] (Homo sapiens, HT-29, 96 h), 6040 pM. The figures for the “Maximum Killing (%)” value in test [1] and in test [2] were 95.6% and 90.6%, respectively.

B1: Control antibody hum30 (antibody, from another filing, V domains shown)
VH: QVQLVQSGAEVKKPGSSVKVSCKASGYTFTNYVMHWVRQAPGQGLEWMGYINPYNDDVKYNEKFKGRVTITADESTSTAYMELSSLRSEDTAVYYCARWGYYGSPLYYFDYWGQGTLVTVSS
VL: EIVLTQSPATLSLSPGERATLSCRASSRLIYMHWYQQKPGQAPRPLIYATSNLASGIPARFSGSGSGTDFTLTISSLEPEDFAVYYCQQWNSNPPTFGQGTKVEIK
Turning to B1, in test [3], the Kd was 344 pM, the koff came out at 0.000324 s⁻¹ and the kon was 941000 M⁻¹ s⁻¹. Further, the concentration giving a half-maximal response (EC50) in test [4] came to 1220 pM.
